pEC50: −log10 of the molar value.
The compounds below were run against Survival motor neuron protein (Homo sapiens, UniProt Q16637) (assay: Stabilization of human SMN protein expressed in HEK293 cells expressing SMN2 promoter after 24 hrs by luciferase reporter gene assay).
Survival motor neuron protein, sequence (Q16637 whole entry): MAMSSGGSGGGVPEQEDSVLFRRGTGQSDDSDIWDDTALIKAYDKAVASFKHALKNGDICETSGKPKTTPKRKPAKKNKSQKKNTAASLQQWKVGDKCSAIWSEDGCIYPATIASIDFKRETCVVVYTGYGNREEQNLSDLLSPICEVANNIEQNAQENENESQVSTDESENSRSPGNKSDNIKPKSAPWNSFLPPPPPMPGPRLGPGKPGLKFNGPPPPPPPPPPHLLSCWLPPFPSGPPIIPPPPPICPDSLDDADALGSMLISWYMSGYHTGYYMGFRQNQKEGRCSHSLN

Point of comparison: `CC(C)c1cc(C(=O)Nc2ccc(Cl)cc2)no1`, pEC50 5.55. Against it:
- COc1ccccc1NC(=O)c1cc(C(C)C)on1 — 0.41 log units lower, 5.14
- CC(C)c1cc(C(=O)Nc2ccccc2)no1 — 1.00 log units higher, 6.55
- CC(C)c1cc(CNc2ccc(F)c(Cl)c2)no1 — 0.60 log units lower, 4.95
- CC(C)c1cc(C(=O)Nc2ccc(F)cc2)no1 — within 0.2 log units, 5.74
- CC(C)c1cc(C(=O)Nc2nccs2)no1 — 0.56 log units higher, 6.11
- CC(C)c1cc(NC(=O)c2ccc(F)c(Cl)c2)no1 — 0.55 log units lower, 5.00
- CC(C)c1cc(C(=O)Nc2cccnc2)no1 [MLS000087329] — 0.55 log units lower, 5.00
- CC(C)c1nc(NC(=O)c2ccc(F)c(Cl)c2)cs1 — 0.25 log units higher, 5.80
- CC(C)c1cc(C(=O)Nc2nc3ccccc3s2)no1 — 1.22 log units higher, 6.77
- CC(C)c1cc(C(=O)Nc2ccccc2F)no1 — 1.04 log units higher, 6.59
- CC(C)c1cc(C(=O)Nc2nc3ccccc3n2C)no1 — within 0.2 log units, 5.59
- Cc1cccc(NC(=O)c2cc(C(C)C)on2)c1 — within 0.2 log units, 5.74
- CC(C)c1cc(C(=S)Nc2ccc(F)c(Cl)c2)no1 — 0.69 log units lower, 4.86
- CC(C)c1cc(C(=O)Nc2cccc(F)c2)no1 — 0.92 log units higher, 6.47
- CC(C)c1cc(C(=O)Nc2cccc(Cl)c2)no1 [MLS000087323] — 0.52 log units higher, 6.07
- CC(C)c1cc(C(=O)Nc2nc3ccccc3[nH]2)no1 — 1.04 log units higher, 6.59
- CC(C)(C)c1cc(C(=O)Nc2ccc(F)c(Cl)c2)no1 — within 0.2 log units, 5.71
- Cc1ccc(NC(=O)c2cc(C(C)C)on2)cc1 — 0.30 log units higher, 5.85
- Cc1ccccc1NC(=O)c1cc(C(C)C)on1 — 0.28 log units lower, 5.27
- O=C(Nc1ncc(C2CCC2)s1)c1ccc(F)c(Cl)c1 — 0.75 log units higher, 6.30
- COc1cccc(NC(=O)c2cc(C(C)C)on2)c1 — within 0.2 log units, 5.44
- CC(C)c1cc(NC(=O)c2ccc(F)c(Cl)c2)on1 — 0.29 log units lower, 5.26
- Cc1c(C(=O)Nc2ccc(F)c(Cl)c2)noc1C(C)C — 0.75 log units higher, 6.30
- CCc1cc(C(=O)Nc2ccc(F)c(Cl)c2)no1 — 0.49 log units lower, 5.06
- CC(C)c1cc(C(=O)Nc2ccccn2)no1 — 0.89 log units higher, 6.44
- CC(C)c1cc(C(=O)Nc2ccccc2Cl)no1 — 0.34 log units lower, 5.21
- CC(C)c1cc(C(=O)N2CCc3ccccc32)no1 — 0.59 log units higher, 6.14
- O=C(Nc1ccc(F)c(Cl)c1)c1cc(Cc2ccccc2)on1 — within 0.2 log units, 5.45
- CC(C)Cc1cc(C(=O)Nc2ccc(F)c(Cl)c2)no1 — 0.27 log units higher, 5.82
